Test results: publication PMC11148373, “Cubeb (Piper cubeba L.): nutritional value, phytochemical profiling and dermacosmeceutical properties” (Frontiers in Nutrition, 2024)

Target: T1, elastase from porcine pancreas (Sus scrofa, UniProt P00772)
T1 construct: gene CELA1; commercial native porcine pancreatic elastase (Sigma Aldrich)
Test: N-Succinyl-Ala-Ala-Ala-p-nitroanilide hydrolysis, absorbance at […] nm
Assay type: biochemical
Conditions: read-out: IC50 (μg/mL) / Elastase (converted)

T1 sequence (P00772 27-266): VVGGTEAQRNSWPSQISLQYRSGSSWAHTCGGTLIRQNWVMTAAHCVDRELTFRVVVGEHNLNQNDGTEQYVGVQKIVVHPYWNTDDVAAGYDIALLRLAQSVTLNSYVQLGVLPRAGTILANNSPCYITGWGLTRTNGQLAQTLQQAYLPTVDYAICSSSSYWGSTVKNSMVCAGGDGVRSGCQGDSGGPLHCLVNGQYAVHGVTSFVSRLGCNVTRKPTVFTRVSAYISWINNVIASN

## O=C(O[C@@H]1Cc2c(O)cc(O)cc2O[C@@H]1c1cc(O)c(O)c(O)c1)c1cc(O)c(O)c(O)c1 [Epigallocatechin gallate]
  IC50: 505 µM
